# Laboratory results taken from patent US4027039A (priority 1975, dated 1977).
# Where a name gives a salt, the structure may show the parent alone.
# System: Influenza, Ann Arbor virus
# Test: Influenza Ann Arbor in mice, oral; schedule by table; late read day 5 (Tables 15, 25, 29, 30), 6 (18, 20, 22, 23, 26, 27, 28, 54), 7 (14, 19, 21, 24, 53, 56), 8 (16, 17, 51), 9 (11, 55)
# Format: in vivo, mouse
# Details: for Toxic: oral, mouse
Structure (SMILES),No. animals surviving after 5-7 days (total dose 30 pg),Survivors (total dose 30 pg),No. animals surviving after 5-7 days (total dose 300 pg),Survivors (total dose 300 pg),No. animals surviving after 5-7 days (total dose 3 ng),Survivors (total dose 3 ng),No. animals surviving after 5-7 days (total dose 30 ng),Survivors (total dose 30 ng),No. animals surviving after 5-7 days (total dose 300 ng),Survivors (total dose 300 ng),No. animals surviving after 5-7 days (total dose 3 μg),Survivors (total dose 3 μg),No. animals surviving after 5-7 days (total dose 30 μg),Survivors (total dose 30 μg),No. animals surviving after 5-7 days (total dose 300 μg),Survivors (total dose 300 μg),No. animals surviving after 5-7 days (total dose 3 mg),Survivors (total dose 3 mg),other results
"CCCC(C)=NNC(N)=S [2-pentanone, thiosemicarbazone]",2,0,2,0,2,0,2,0,1,0,1,0,1,1,0,0,,,No. animals surviving after 7 days (total dose 15 ng): 3; Survivors (total dose 15 ng): 0; No. animals surviving after 7 days (total dose 22.5 ng): 0; Survivors (total dose 22.5 ng): 0; No. animals surviving after 7 days (total dose 75 ng): 1; Survivors (total dose 75 ng): 0; No. animals surviving after 7 days (total dose 150 ng): 0; Survivors (total dose 150 ng): 0; No. animals surviving after 7 days (total dose 225 ng): 3; Survivors (total dose 225 ng): 0; No. animals surviving after 7 days (total dose 750 ng): 2; Survivors (total dose 750 ng): 0; No. animals surviving after 7 days (total dose 1.5 μg): 2; Survivors (total dose 1.5 μg): 0; No. animals surviving after 7 days (total dose 2.25 μg): 1; Survivors (total dose 2.25 μg): 1
NC(N)=S [Thiourea],2,0,4,0,3,1,4,0,2,0,7,0,3,0,6,1,5,0,
"CN(C)N [1,1-dimethylhydrazine]",5,0,3,0,3,1,2,0,3,0,2,0,1,1,3,0,2,0,
"NC(=S)NN=C1Cc2ccccc2C1 [2-indanone, thiosemicarbazone]",8,1,8,0,5,0,9,0,8,1,8,1,8,0,6,0,,,Toxic (total dose 3 mg): Toxic
"CCC(CC)=NNC(N)=S [3-pentanone, thiosemicarbazone]",2,0,1,0,3,0,0,0,3,0,6,1,7,0,4,0,,,No. animals surviving after 7 days (total dose 12 μg): 1; Survivors (total dose 12 μg): 0; No. animals surviving after 7 days (total dose 18 μg): 1; Survivors (total dose 18 μg): 1; No. animals surviving after 7 days (total dose 24 μg): 0; Survivors (total dose 24 μg): 0; No. animals surviving after 7 days (total dose 60 μg): 1; Survivors (total dose 60 μg): 0; No. animals surviving after 7 days (total dose 90 μg): 3; Survivors (total dose 90 μg): 0; No. animals surviving after 7 days (total dose 120 μg): 1; Survivors (total dose 120 μg): 1; No. animals surviving after 7 days (total dose 150 μg): 2; Survivors (total dose 150 μg): 1
"CNN [Methylhydrazine, methylhydrazine]",2,1,3,0,3,1,4,1,1,0,3,0,3,1,1,0,,,Toxic (total dose 3 mg): Toxic
"Cc1ccccc1NC(=S)NN=C1CCCC1 [cyclopentanone, 3-thio-4-o-tolyl-semicarbazone]",6,0,9,0,9,0,9,,6,0,6,0,,0,9,0,8,0,
"CNNC [1,2-dimethylhydrazine, dihydrochloride]",6,1,2,0,3,0,3,1,5,0,3,0,4,0,6,0,3,0,
"CC(C)=NNC(N)=S [acetone, thiosemicarbazone]",3,1,2,0,2,0,2,0,3,0,5,0,2,0,3,0,,,
"C=CCNC(=S)NN=C1Cc2ccccc2C1 [2-Indanone, 4-allylthiosemicarbazone]",4,0,7,0,4,0,6,0,6,0,2,0,6,0,2,0,4,1,
"CCOC(=O)CC(C)=NNC(N)=S [acetoacetic acid, ethyl ester, thiosemicarbazone]",8,0,4,0,5,0,5,0,4,0,6,0,8,0,7,0,5,0,
"NC(N)=NN=Cc1c(Cl)cccc1Cl [[(2,6-dichlorobenzylidine)amino]guanidine acetate]",4,0,2,1,4,0,1,0,1,0,2,0,3,0,1,0,,,Toxic (total dose 3 mg): Toxic
"CCC(C)=NNC(=N)N.O=[N+]([O-])O [1-(sec-butylideneamino)guanidine nitrate, 1-(sec-butylideneamino)guanidine, nitrate]",,,,,0,0,1,0,3,2,0,0,2,2,0,0,,,
